Where a name gives a salt, the structure may show the parent alone.
Experiments:
[1] = molecular target: T1, human GIPR (Homo sapiens, UniProt P48546); assay: Human GIP Receptor Potentiator Assay (cAMP formation, HTRF, in presence of EC20 dose of GIP(1-42)); assay type: cell-based; conditions: HEK293 GIPR cell line intracellular cAMP response, with 25 pM GIP(1-42); for Emax: percent top of maximal response; for EC50: relative EC50, read-out: EC50 (nM) and SEM (n)
T1 construct: expressed in transfected cells; host or cells: HEK293 clonal cell line
T1 sequence (P48546 22-466): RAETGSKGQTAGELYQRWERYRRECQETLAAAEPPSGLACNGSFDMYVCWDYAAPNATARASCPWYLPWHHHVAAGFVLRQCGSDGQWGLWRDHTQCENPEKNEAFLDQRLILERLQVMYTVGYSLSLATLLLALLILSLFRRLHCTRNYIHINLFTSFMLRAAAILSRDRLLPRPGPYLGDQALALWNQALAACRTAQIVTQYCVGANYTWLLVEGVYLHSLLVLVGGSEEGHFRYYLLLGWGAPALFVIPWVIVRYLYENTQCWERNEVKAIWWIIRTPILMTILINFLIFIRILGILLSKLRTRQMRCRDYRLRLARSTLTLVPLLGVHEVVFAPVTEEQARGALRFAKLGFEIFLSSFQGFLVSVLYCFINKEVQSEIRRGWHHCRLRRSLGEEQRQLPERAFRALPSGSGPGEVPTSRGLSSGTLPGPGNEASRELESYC
Protocol: Human GIP Receptor Potentiator Assay
GIP Receptor (GIPR) functional activity is determined using cAMP formation in an HEK293 clonal cell line expressing human GIPR (NCBI accession number NP_000155). […] The hGIPR receptor expressing cells are treated with 25 pM of GIP(1-42) (Labcyte Echo direct dilution) and a dose response of test compound (10 point concentration-response curve in DMSO, 3-fold Labcyte Echo direct dilution, 384 well plate Corning Cat #3570) in DMEM (Gibco Cat #31053) supplemented with 1× GlutaMAX™ (Gibco Cat #35050), 0.1% bovine casein (Sigma C4765-10ML), 250 μM IBMX (3-Isobutyl-1-methylxanthine, Acros Cat #228420010) and 20 mM HEPES (Gibco Cat #15630) in a 20 μL assay volume (final DMSO concentration is 1.0%). After a 30 min incubation at 37° C., the resulting increase in intracellular cAMP is quantitatively determined using the CisBio cAMP Dynamic 2 HTRF Assay Kit (62AM4PEJ). Briefly, cAMP levels within the cell are detected by adding the cAMP-d2 conjugate in cell lysis buffer (10 μL) followed by the antibody anti-cAMP-Eu^3+-Cryptate, also in cell lysis buffer (10 μL). The resulting competitive assay is incubated for at least 60 min at room temperature, then detected using a PerkinElmer Envision® instrument with excitation at 320 nm and emission at 665 nm and 620 nm. Envision units (emission at 665 nm/620 nm*10,000) are inversely proportional to the amount of cAMP present and are converted to nM cAMP per well using a cAMP standard curve. The amount of cAMP generated (nM) in each well is converted to a percent of the maximal response observed. A relative EC50 value and percent top (Emax) are derived by non-linear regression analysis using the percent maximal response vs. the concentration of compound added, fitted to a four-parameter logistic equation. The EC50 and Emax data when the compounds of Examples 1 and 3 are tested in the cAMP assay described above are shown in Table 1.

[2] = molecular target: T2, human GLP-1R (Homo sapiens, UniProt P43220); assay: Human GLP-1 Receptor Potentiator Assay (cAMP formation, HTRF, in presence of EC20 dose of oxyntomodulin); assay type: cell-based; conditions: HEK293 GLP-1R cell line intracellular cAMP response, with 5 nM oxyntomodulin
T2 construct: expressed in transfected cells; host or cells: HEK293 clonal cell line
Protocol: Human GLP-1 Receptor Potentiator Assay
GLP-1 Receptor (GLP-1R) functional activity is determined using cAMP formation in an HEK293 clonal cell line expressing human GLP-1R (NCBI accession number NP_002053). […] After 60 min incubation at room temperature, the resulting increase in intracellular cAMP is quantitatively determined using a custom CisBio cAMP Hybrid HTRF Assay Kit (60MISZZZ). Briefly, cAMP levels within the cell are detected by adding the Dynamic 2 cAMP-d2 conjugate in cell lysis buffer (10 μL) followed by the HiRange antibody anti-cAMP-Eu^3+-Cryptate, also in cell lysis buffer ([…]). The resulting competitive assay is incubated for at least 60 min at RT, then detected using a PerkinElmer Envision® instrument with excitation at 320 nm and emission at 665 nm and 620 nm. […]

T2 sequence (P43220 24-463): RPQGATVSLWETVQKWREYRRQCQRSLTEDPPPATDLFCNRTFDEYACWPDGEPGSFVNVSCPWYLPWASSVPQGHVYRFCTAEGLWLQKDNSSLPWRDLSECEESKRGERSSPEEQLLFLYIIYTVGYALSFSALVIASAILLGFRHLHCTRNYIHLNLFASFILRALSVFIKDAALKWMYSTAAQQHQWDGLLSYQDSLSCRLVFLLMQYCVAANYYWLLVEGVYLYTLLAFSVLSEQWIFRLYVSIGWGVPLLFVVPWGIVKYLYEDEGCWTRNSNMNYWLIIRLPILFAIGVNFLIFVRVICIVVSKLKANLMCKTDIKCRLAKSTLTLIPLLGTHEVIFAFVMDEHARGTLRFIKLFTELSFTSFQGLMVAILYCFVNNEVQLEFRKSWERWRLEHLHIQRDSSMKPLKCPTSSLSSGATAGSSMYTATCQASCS

Emax [1] | EC50 [1] | Emax ([2]; percent top of maximal response) | EC50 ([2]; relative EC50, read-out: EC50 (nM) and SEM (n)) | SMILES
101 ± 7% | 11.9 nM |  |  | COc1ccc2c(c1-c1cc(F)c(O)c(NCC(C)C)c1)CCN(C(C)c1ccc(C(C)C)cc1)[C@@H]2C (single isomer, unassigned) [Example 1, dihydrochloride]
 |  | 181 ± 35% | 15.7 nM | COCC1Cc2c(ccc(OC)c2-c2ccc(O)c(C)c2)CN1Cc1ccc(C(C)C)cc1O (single isomer, unassigned) [Example 2, 4-[2-[(2-Hydroxy-4-isopropyl-phenyl)methyl]-6-methoxy-3-(methoxymethyl)-3,4-dihydro-1H-isoquinolin-5-yl]-2-methyl-phenol; hydrochloride]
91 ± 8% | 37.5 nM |  |  | COc1ccc2c(c1-c1cc(C)c(O)c(F)c1)CCN(C(C)c1ccc(C(C)C)cc1)[C@@H]2C (single isomer, unassigned) [Example 3, hydrochloride]
